What all share (format): functional
Experiment [1] is filed under the species Rattus norvegicus. The experiment in a line: Compound was tested at 0.1 uM concentration for neurotrophic activity on cultures of E 18 SD rat cortical neurons.
Experiment [2] is filed under the species Rattus norvegicus. The experiment in a line: Compound was tested at 1 uM concentration for neurotrophic activity on cultures of E 18 SD rat cortical neurons.
For experiment [3], the species on record is Rattus norvegicus. The experiment in a line: Compound was tested at 10 uM concentration for neurotrophic activity on cultures of E 18 SD rat cortical neurons.
The species named for experiment [4] is Rattus norvegicus. The experiment in a line: Compound was tested at 0.01 uM concentration for neurotrophic activity on cultures of E 18 SD rat cortical neurons.
The species named for experiment [5] is Rattus norvegicus. Briefly: Compound was tested at 100 uM concentration for neurotrophic activity on cultures of E 18 SD rat cortical neurons.

Structures are written as SMILES.

On to `C=CCc1ccc(O)c(-c2ccc(O)c(CC=C)c2)c1` [HONOKIOL], for which the Control in the experiment filed under Rattus norvegicus [1] is listed as 106%; in the experiment listed under Rattus norvegicus [2] it was 113%; in the experiment listed under Rattus norvegicus [3] it was 143%; in the experiment filed under Rattus norvegicus [4] it was 95.6%; in the experiment filed under Rattus norvegicus [5] it was 29.7%.

The values above are taken from ChEMBL document CHEMBL1135877, “Neurotrophic activity of honokiol on the cultures of fetal rat cortical neurons” (2002).
